Values of other authors in patent US10729766B2 (priority 2013, dated 2020).

Legend:
[1] = mice; single bolus low dose administration

What does the source list for `O=P1(N(CCCl)CCCl)NCCCO1` (stereo not shown) [Cyclophosphamide, N,N-bis(2-chloroethyl)-1,3,2-oxazaphosphinan-2-amine 2-oxide]?
bioavailability, oral versus parenteral administration (human, in vivo, po): little difference in bioavailability; peak plasma levels of the parent (varies between patients): 3 to 11 h; time of effects returning to normal [1]: 7 to 10 days; time to nadir of effects after administration [1]: ≤ 4 days
